Paper PMC6005845 (Frontiers in Cardiovascular Medicine, 2018)
Read-outs that look alike come from different tables or passages of the source. Each block holds one molecule with its values, some of them ahead of it.

What was measured:
APOE*3Leiden.CETP mice [1] = assay: Plasma cholesterol, triglycerides and HDL-C in the atherosclerosis study; assay type: in vivo; conditions: for change of HDL-C vs control: at 16 weeks of treatment; for reduction of average plasma cholesterol compared to control: p < 0.001
Experimental: Pouwer et al Supplementary material plasma lipids and a minimal effect of treatment of 30%, resulting in 15 animals per group.
Animal experiments were approved by the Institutional Animal Care and Use Committee of The Netherlands Organization for Applied Research under registration number 3557. […]
Biochemical analyses and blood pressure
EDTA plasma samples were collected throughout the study. Plasma cholesterol and triglycerides were determined every 4 weeks using enzymatic kits (Roche/Hitachi) according […]
(§1) HDL-C was measured after precipitation as described previously20. The distribution of […]
(§2) protein liquid chromatography (FPLC)9. The inflammatory markers SAA, E-selectin and MCP- […]
(§3) according to the manufacturer’s instruction. Plasma ALT and AST were determined using a […]
group at 2 and 15 weeks18. […]

APOE*3Leiden.CETP mice [2] = assay: Hepatic lipid content by HPTLC; assay type: in vivo; conditions: 16 weeks
Experimental: (§4) Pouwer et al Supplementary material
as §1, §2, §3
(§5) group at 2 and 15 weeks18.
(§6) Straubenhardt, Germany).21
(§7) BAL and urinary albumin:creatinin […]
(§8) catheter to collect broncho-alveolar lavage (BAL) fluid. Protein and albumin content in BAL […]
(§9) the mouse albumin ELISA kit (ALPCO, Salem, USA). Urinary albumin and creatinin levels […]
(§10) kit (Exocell, Philadelphia, USA) according to manufacturer’s instruction.

APOE*3Leiden.CETP mice [3] = assay: Lung vascular integrity: histology, wet/dry weight ratio, protein in BAL fluid; assay type: in vivo
Experimental: as §4, §1, §2, §3, §5, §6, §7, §8, §9, §10
Dickinson, Franklin Lakes, New Jersey, USA). After 12 weeks of treatment, peripheral blood […]
CD11b+/Ly6Chigh monocytes. The following conjugated monoclonal antibodies, all from […]
(§11) Coagulation factor VII and VIIa
(Diagnostica Stago Inc. Parsippany, N J). For the determination of total clotting FVII an one […]
Histological assessment of lung morphology and atherosclerosis […]
The caudal lung was cross […]
(§12) direction of the aortic arch.

SAA = assay: Plasma SAA ELISA; assay type: in vivo, APOE*3Leiden.CETP mice; conditions: for SAA: after 16 weeks of treatment
Text: (§13) Pouwer et al Supplementary material […]
(§14) The inflammatory markers SAA, E-selectin and MCP-
(§15) according to the manufacturer’s instruction. […]

factor VII = assay: Total factor VII coagulant activity in plasma; assay type: in vivo, APOE*3Leiden.CETP mice
Text: as §4
(§16) Dickinson, Franklin Lakes, New Jersey, USA). After 12 weeks of treatment, peripheral blood
(§17) CD11b+/Ly6Chigh monocytes. The following conjugated monoclonal antibodies, all from
as §11
(§18) (Diagnostica Stago Inc. Parsippany, N J). For the determination of total clotting FVII an one
(§19) Histological assessment of lung morphology and atherosclerosis
(§20) The caudal lung was cross
as §12

[4] = for Body weight / Food intake: after 16 weeks; for Food intake: per cage
Text: Female APOE*3Leiden.CETP transgenic mice (9 to 14 weeks of age) from the SPF breeding stock at TNO-Metabolic Health Research (TNO-Leiden) were used in this study. Females were used because they are more responsive to dietary cholesterol and fat than males. APOE*3Leiden females have a higher VLDL production ([20]) than males resulting in higher plasma total cholesterol (TC) and triglyceride (TG) levels and more pronounced development of atherosclerosis ([21, 22]). […] Body weight, food intake and clinical signs of behavior were monitored regularly during the study. Animal experiments were approved by the Institutional Animal Care and Use Committee of The Netherlands Organization for Applied Research under registration number 3557.

liver = assay: Liver gene expression analysis (RNA sequencing) and pathway analysis; assay type: in vivo, APOE*3Leiden.CETP mice; conditions: vs control, Figure 7: imatinib 150, nilotinib 30, ponatinib 10 mg/kg
Experimental: To find early molecular signatures of other clinically relevant processes induced by the anti-CML drugs, gene expression and pathway analysis was performed in the liver as the central organ in lipid metabolism and synthesis of coagulation factors. To identify drug-specific molecular responses and overlap between the various treatments, the total number of differentially expressed genes (DEG) was assessed and a Venn-diagram was constructed comprising all DEG compared to control group. […]
Messenger RNA was isolated from liver of 8 mice per group, using the NEBNext Ultra RNA
sample Prep Kit. After fragmentation of the mRNA, cDNA synthesis was performed. The

[5] = QD, cited from earlier work
[6] = tested on: peripheral blood mononuclear cells; assay: Flow cytometric analysis (FACS) of PBMCs and monocyte subsets; conditions: for CD11b+Ly6Clow / Number of live/single PBMCs per mL blood / CD11b+Ly6Chigh: after 12 weeks; for change of number of circulating PBMCs vs control: at 12 weeks
CML = conditions: cited from earlier work
E-selectin = assay: Plasma E-selectin ELISA; assay type: in vivo, APOE*3Leiden.CETP mice; conditions: after 16 weeks of treatment
Text: as §13, §14, §15

factor VIIa = assay: Factor VIIa activity in plasma; assay type: in vivo, APOE*3Leiden.CETP mice; conditions: 30 mg/kg QD, at 4 weeks, p < 0.001
Text: as §4, §16, §17, §11, §18, §19, §20, §12

Compound: Cc1ccc(C(=O)Nc2ccc(CN3CCN(C)CC3)c(C(F)(F)F)c2)cc1C#Cc1cnc2cccnn12 [Ponatinib, ponatinib]
change of HDL-C vs control (APOE*3Leiden.CETP mice [1]; 3 mg/kg QD (low dose), p = 0.003): −30% | reduction of average plasma cholesterol compared to control (APOE*3Leiden.CETP mice [1]; 3 mg/kg QD, 16 week study): 37% | change of HDL-C vs control (APOE*3Leiden.CETP mice [1]; 10 mg/kg QD (high dose), p = 0.016): −25% | reduction of average plasma cholesterol compared to control (APOE*3Leiden.CETP mice [1]; 10 mg/kg QD, 16 week study): 44% | change of hepatic cholesterol ester content vs control (APOE*3Leiden.CETP mice [2]; 3 mg/kg QD (low dose), p < 0.001): −49% | change of hepatic triglyceride content vs control (APOE*3Leiden.CETP mice [2]; 3 mg/kg QD (low dose), p = 0.048): −32% | change of hepatic cholesterol ester content vs control (APOE*3Leiden.CETP mice [2]; 10 mg/kg QD (high dose), p < 0.001): −61% | change of hepatic triglyceride content vs control (APOE*3Leiden.CETP mice [2]; 10 mg/kg QD (high dose), p = 0.005): −43% | change of hepatic free cholesterol content vs control (APOE*3Leiden.CETP mice [2]; 10 mg/kg QD, p = 0.007): −21% | decrease of the amount of protein in BAL fluid (APOE*3Leiden.CETP mice [3]; 3 mg/kg QD, week 16, p = 0.029): 51% | decrease of the amount of protein in BAL fluid (APOE*3Leiden.CETP mice [3]; 10 mg/kg QD, week 16, p = 0.041): 47% | SAA (SAA; 3 mg/kg QD): 10.4 ± 1.9 µg/mL | SAA (SAA; 10 mg/kg QD): 15.2 ± 21.1 µg/mL | change of total factor VII coagulant activity (FVII) in plasma vs control (factor VII; 3 mg/kg QD, after 12 weeks, p = 0.07): +28% | change of total factor VII coagulant activity (FVII) in plasma vs control (factor VII; 10 mg/kg QD, after 4 weeks, p < 0.001): +265% | mice that died during blood pressure measurements ([4]; 3 mg/kg QD, t = 15 weeks): Two | Body weight ([4]; 3 mg/kg): 22.5 ± 2.3 gram | Food intake ([4]; 3 mg/kg): 2.4 gram/mouse/day | Body weight ([4]; 10 mg/kg): 22.3 ± 2.8 gram | Food intake ([4]; 10 mg/kg): 2.3 gram/mouse/day | gene expression of F7 (liver): increased | gene expression of Klkb1 (liver): increased | gene expression of Kng1a (liver): increased | gene expression of Tpa (liver): decreased | gene expression of Upa (liver): decreased | AUC0–24 ([5]; CML-patients, repeated dose, dose 15–60 (mg)): 1300 ng·h/mL | AUC0–24 ([5]; CML-patients, single, dose 60 (mg)): 700 ± 400 ng·h/mL | CD11b+Ly6Clow ([6]; 3 mg/kg): 58.4 ± 2.5 % of monocyte population | Number of live/single PBMCs per mL blood ([6]; 3 mg/kg): 7.1 ± 1.7 *106 /mL | change of number of circulating PBMCs vs control ([6]; 10 mg/kg QD (high-dose), p = 0.003): −44% | CD11b+Ly6Clow ([6]; 10 mg/kg): 69.1 ± 6.4 % of monocyte population | Number of live/single PBMCs per mL blood ([6]; 10 mg/kg): 3.8 ± 0.8 *106 /mL

SAA (SAA; 150 mg/kg BID): 9.6 ± 0.5 µg/mL | gene expression of Protein C (liver): up-regulated | gene expression of Protein S (liver): down-regulated | gene expression of Serpina1 (PAI-1) (liver): up-regulated | gene expression of Tpa (liver): down-regulated | gene expression of Upa (liver): down-regulated | CD11b+Ly6Chigh ([6]; 150 mg/kg BID): 11.0 ± 3.6 % of monocyte population | CD11b+Ly6Clow ([6]; 150 mg/kg BID): 69.1 ± 5.9 % of monocyte population | Number of live/single PBMCs per mL blood ([6]; 150 mg/kg BID): 3.9 ± 1.3 *106 /mL | change of number of circulating PBMCs vs control ([6]; 150 mg/kg BID, p = 0.006): −42%
Compound: Cc1ccc(NC(=O)c2ccc(CN3CCN(C)CC3)cc2)cc1Nc1nccc(-c2cccnc2)n1 [Imatinib, imatinib]
reduction of average plasma cholesterol compared to control (APOE*3Leiden.CETP mice [1]; 150 mg/kg BID, 16 week study): 69% | reduction of average plasma triglyceride levels compared to control (APOE*3Leiden.CETP mice [1]; 150 mg/kg BID, 16 week study, p = 0.019): 36% | change of hepatic cholesterol ester content vs control (APOE*3Leiden.CETP mice [2]; 150 mg/kg BID, p = 0.001): −30% | effect on plasma SAA (SAA; 150 mg/kg BID, 16 weeks): None of the inflammatory markers were significantly altered | relapses in treated patients (CML): up to 17%

SAA (SAA; 10 mg/kg QD): 10.6 ± 1.0 µg/mL | SAA (SAA; 30 mg/kg QD): 10.6 ± 1.1 µg/mL | E-selectin (E-selectin; 10 mg/kg QD): 79 ± 23 ng/mL | E-selectin (E-selectin; 30 mg/kg QD): 99 ± 17 ng/mL | increase of the activity of FVIIa in plasma vs control (factor VIIa): 82% | gene expression of F5 (liver): down-regulation | gene expression of F9 (liver): down-regulation | gene expression of Protein S (liver): down-regulation | gene expression of Serpina1 (PAI-1) (liver): up-regulated | CD11b+Ly6Chigh ([6]; 10 mg/kg): 27.5 ± 4.3 % of monocyte population | CD11b+Ly6Clow ([6]; 10 mg/kg): 61.4 ± 4.8 % of monocyte population | Number of live/single PBMCs per mL blood ([6]; 10 mg/kg): 6.5 ± 2.4 *106 /mL | CD11b+Ly6Chigh ([6]; 30 mg/kg): 11.4 ± 3.8 % of monocyte population | CD11b+Ly6Clow ([6]; 30 mg/kg): 73.2 ± 4.9 % of monocyte population | Number of live/single PBMCs per mL blood ([6]; 30 mg/kg): 6.4 ± 1.4 *106 /mL
Compound: Cc1cn(-c2cc(NC(=O)c3ccc(C)c(Nc4nccc(-c5cccnc5)n4)c3)cc(C(F)(F)F)c2)cn1 [Nilotinib, nilotinib]
effect on plasma lipid levels (APOE*3Leiden.CETP mice [1]; 10 and 30 mg/kg QD, 16 week study, vs control): no significant effect | AUC0–24 ([5]; CML-patients, repeated dose, dose 400–1,200 (mg)): 36000 ± 11800 ng·h/mL | AUC0–24 ([5]; healthy subjects, single, dose 400 (mg)): 14700 ± 5000 ng·h/mL
